Test results as given in US20090280130A1 (priority 2006, published 2009).
Several values for one entry are separate records, joined by “and”; a condition that tells them apart may be missing. Identical values can stand only once. Entries after “also recorded” stand apart in the source; their conditions may differ.

Legend:
zebrafish embryos [1] = format: in vivo; conditions: 5 μM for 6 hours
zebrafish embryos [2] = conditions: in vivo
VEGFR2 [3] = biological target: VEGFR2 (Mus musculus, UniProt P35918); conditions: cited from earlier work
[4] = test system: mouse skin microvasculature; parameters: species or system C3H/HeJ mice; conditions: in vivo
zebrafish embryos [5] = conditions: in vivo; remark: listed apart in the source
zebrafish embryos [6] = format: in vivo; conditions: n>30
VEGFR2 [7] = biological target: T1, VEGFR2 (Homo sapiens, UniProt P35968); conditions: cited from earlier work
VEGFR1 = VEGFR1 (Homo sapiens, UniProt P17948); conditions: cited from earlier work
VEGFR2 [8] = biological target: T1, VEGFR2; conditions: cited from earlier work; remark: listed apart in the source
zebrafish embryos [9] = conditions: in vivo; remark: listed apart in the source

T1 sequence (P35968 20-1356): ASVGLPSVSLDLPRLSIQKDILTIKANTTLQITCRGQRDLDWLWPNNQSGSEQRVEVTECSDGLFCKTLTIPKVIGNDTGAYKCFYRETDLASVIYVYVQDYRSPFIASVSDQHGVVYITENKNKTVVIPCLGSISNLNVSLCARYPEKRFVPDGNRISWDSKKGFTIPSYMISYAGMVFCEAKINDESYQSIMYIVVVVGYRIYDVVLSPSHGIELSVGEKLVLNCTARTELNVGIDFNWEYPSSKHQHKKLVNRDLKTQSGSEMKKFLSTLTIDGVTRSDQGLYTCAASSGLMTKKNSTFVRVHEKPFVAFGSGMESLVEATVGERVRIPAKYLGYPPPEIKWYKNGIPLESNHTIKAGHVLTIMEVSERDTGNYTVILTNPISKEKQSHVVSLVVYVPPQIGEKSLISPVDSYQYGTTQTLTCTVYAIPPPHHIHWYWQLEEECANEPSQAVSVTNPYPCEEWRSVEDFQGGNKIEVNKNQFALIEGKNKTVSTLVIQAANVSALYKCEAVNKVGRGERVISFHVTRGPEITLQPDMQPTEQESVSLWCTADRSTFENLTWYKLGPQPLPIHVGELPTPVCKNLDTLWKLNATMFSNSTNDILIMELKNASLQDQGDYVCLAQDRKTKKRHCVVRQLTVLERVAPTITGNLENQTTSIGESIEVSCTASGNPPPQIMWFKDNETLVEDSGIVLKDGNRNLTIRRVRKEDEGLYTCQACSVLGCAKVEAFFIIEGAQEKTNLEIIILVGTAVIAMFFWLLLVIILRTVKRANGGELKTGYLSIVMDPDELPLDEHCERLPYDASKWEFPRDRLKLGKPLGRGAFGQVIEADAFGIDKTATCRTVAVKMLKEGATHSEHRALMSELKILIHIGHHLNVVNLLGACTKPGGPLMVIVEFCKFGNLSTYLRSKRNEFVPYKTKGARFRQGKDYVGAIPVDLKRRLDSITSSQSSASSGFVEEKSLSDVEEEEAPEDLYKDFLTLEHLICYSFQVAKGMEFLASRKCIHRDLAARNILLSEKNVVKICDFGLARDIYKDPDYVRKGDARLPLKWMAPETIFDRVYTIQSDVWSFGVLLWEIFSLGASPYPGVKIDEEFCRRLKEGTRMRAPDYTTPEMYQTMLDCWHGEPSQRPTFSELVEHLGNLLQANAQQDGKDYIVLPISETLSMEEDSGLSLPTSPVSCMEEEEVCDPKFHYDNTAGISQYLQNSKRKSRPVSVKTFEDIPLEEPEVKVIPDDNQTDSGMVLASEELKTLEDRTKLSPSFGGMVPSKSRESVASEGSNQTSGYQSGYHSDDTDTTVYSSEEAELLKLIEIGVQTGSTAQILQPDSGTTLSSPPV
Chain of VEGFR1 (P17948 27-1338): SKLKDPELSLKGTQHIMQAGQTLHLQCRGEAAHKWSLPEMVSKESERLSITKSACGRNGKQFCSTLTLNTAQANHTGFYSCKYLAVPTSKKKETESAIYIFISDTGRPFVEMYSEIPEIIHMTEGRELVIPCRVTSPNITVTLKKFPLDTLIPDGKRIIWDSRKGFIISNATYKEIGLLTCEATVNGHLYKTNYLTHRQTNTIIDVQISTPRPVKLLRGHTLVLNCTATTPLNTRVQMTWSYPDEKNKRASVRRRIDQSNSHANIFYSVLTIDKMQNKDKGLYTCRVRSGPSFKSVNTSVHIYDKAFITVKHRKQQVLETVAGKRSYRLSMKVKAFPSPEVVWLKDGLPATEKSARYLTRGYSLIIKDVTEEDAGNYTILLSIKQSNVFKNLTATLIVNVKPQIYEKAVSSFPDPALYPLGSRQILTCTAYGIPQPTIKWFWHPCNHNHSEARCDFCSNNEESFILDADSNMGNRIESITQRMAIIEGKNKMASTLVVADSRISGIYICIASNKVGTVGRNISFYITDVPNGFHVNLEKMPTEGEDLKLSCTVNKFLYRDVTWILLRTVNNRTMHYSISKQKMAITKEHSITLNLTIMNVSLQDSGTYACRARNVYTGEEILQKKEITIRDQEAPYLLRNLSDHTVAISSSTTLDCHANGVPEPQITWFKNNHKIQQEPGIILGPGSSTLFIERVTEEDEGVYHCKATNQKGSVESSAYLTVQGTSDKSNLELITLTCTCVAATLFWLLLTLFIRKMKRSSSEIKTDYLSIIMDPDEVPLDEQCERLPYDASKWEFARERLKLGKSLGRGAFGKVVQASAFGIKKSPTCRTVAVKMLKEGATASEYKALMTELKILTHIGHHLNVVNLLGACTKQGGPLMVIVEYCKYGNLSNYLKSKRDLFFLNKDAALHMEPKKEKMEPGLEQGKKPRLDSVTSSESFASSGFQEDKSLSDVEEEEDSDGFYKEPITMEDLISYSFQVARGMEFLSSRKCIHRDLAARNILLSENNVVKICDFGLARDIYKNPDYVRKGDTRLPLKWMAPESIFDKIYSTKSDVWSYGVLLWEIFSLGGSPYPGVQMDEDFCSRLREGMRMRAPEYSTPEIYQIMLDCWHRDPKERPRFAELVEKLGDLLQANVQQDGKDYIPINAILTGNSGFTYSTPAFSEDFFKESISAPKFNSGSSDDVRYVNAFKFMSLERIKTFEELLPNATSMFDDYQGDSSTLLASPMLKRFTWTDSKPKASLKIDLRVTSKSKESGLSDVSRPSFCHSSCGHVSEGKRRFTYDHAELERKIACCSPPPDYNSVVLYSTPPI
Chain of VEGFR2 (Mus musculus, UniProt P35918) (P35918 20-1345): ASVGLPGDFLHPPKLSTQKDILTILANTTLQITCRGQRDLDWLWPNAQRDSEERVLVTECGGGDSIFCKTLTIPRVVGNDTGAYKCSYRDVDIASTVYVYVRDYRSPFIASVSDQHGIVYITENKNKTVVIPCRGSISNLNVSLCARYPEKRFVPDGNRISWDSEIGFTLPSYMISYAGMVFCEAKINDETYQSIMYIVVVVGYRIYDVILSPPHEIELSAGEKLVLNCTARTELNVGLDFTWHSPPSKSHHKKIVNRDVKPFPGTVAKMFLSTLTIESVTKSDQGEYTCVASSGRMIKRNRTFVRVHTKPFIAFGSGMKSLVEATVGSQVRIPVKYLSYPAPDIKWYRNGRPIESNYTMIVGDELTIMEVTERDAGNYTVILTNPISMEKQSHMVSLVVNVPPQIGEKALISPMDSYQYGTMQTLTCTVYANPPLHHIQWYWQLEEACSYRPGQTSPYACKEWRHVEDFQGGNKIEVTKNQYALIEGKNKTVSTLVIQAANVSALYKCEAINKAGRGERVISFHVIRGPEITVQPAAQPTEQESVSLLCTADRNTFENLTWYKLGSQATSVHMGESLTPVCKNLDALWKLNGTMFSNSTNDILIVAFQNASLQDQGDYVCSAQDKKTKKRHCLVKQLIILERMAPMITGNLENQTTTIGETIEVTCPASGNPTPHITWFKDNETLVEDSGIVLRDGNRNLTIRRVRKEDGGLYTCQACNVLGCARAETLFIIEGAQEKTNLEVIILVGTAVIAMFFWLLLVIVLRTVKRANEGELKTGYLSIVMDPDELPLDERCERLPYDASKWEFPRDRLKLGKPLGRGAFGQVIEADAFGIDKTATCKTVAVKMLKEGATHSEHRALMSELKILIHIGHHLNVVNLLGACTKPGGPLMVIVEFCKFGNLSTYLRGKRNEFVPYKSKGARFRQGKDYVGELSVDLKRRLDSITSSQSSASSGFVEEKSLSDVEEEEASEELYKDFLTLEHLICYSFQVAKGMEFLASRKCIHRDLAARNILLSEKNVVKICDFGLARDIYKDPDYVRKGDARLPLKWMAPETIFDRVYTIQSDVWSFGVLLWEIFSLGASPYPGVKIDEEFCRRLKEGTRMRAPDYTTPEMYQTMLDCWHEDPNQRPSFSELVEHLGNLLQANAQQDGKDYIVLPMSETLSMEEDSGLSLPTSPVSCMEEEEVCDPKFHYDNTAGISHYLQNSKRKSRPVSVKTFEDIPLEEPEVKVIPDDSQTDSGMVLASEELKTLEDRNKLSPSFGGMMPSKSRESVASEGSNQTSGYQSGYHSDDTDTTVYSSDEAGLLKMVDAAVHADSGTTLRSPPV

Row | Compound | Mild Toxin Phenotype (zebrafish embryos [2]) | Severe Toxin Phenotype (zebrafish embryos [2]) | Wildtype Appearance (zebrafish embryos [2]) | other results
1 | C[C@@H]1C[C@@H]([C@H](O)CC2CC(=O)NC(=O)C2)C(=O)[C@@H](C)C1 [cycloheximide] |  |  |  | Phenocopy of endothelial cell fragmentation in the intersegmental vessels (in words) (zebrafish embryos [1]): phenocopied
2 | CCN(CC)CCNC(=O)c1c(C)[nH]c(/C=C2\C(=O)Nc3ccc(Cl)cc32)c1C [SU11652] | 11 | 10 | 1 | Protection against LeTx effects / phenotypes (in words) (zebrafish embryos [2]): demonstrated protection against LeTx effects; Blocking of VEGFR2 activity in vivo (in words) (VEGFR2 [3]): used successfully to block VEGFR2 activity; LeTx induced vascular leakage, Evans Blue Dye (in words) [4]: attenuated LeTx induced vascular leakage significantly; % With Toxin Phen (Mild and Severe) (zebrafish embryos [5]): 80% and 100%; Mild Phen (zebrafish embryos [5]): 7 and 9 and 8; Protection against LeTx effects (in words) (zebrafish embryos [5]): able to protect against LeTx effects; Severe Toxin Phen (zebrafish embryos [5]): 9 and 11 and 12
3 | O=C(NOCC1CC1)c1ccc(F)c(F)c1Nc1ccc(I)cc1Cl [CI-1040] |  |  |  | embryos in which LeTx effects were phenocopied (zebrafish embryos [6]): 100%
4 | ZM323881 | 10 | 8 | 4 | Protection against LeTx effects / phenotypes (in words) (zebrafish embryos [2]): provided the best protection against the development of LeTx phenotypes; also recorded: demonstrated protection against LeTx effects; IC50 (VEGFR2 [7]): < 0.002 µM; IC50 (VEGFR1): > 50 µM; LeTx induced vascular leakage, Evans Blue Dye (in words) [4]: attenuated LeTx induced vascular leakage significantly; VEGFR2 activation (in words) (VEGFR2 [8]): inhibit VEGFR2 activation; Attenuation of toxin effects (in words) (zebrafish embryos [5]): able to attenuate the toxin effects; Mild Toxin Phen (zebrafish embryos [9]): 12 and 8 and 9 and 13; Proportion of embryos displaying LeTx phenotypes (in words) (zebrafish embryos [9]): reduction in the proportion of embryos displaying LeTx phenotypes is seen in 3 concentrations of the inhibitor; Severe forms of the LeTx phenotype (in words) (zebrafish embryos [9]): dramatic reduction in the severe forms of the LeTx phenotype that occurred in all concentrations used
5 | C[C@@H](N)[C@H]1CC[C@H](C(=O)Nc2ccncc2)CC1 [Y-27632] | 6 | 13 | 1 | 
6 | AG-1296 | 3 | 15 | 2 | 
7 | ZM449829 | 5 | 15 | 1 | 
8 | Cn1cc(C=C2C(=O)Nc3ccc(S(N)(=O)=O)cc32)c2ccccc21 [Syk Inhibitor, 3-(1-Methyl-1H-indol-3-yl-methylene)-2-oxo-2,3-dihydro-1H-indol-5-sulfonamide] | 7 | 14 | 1 | 
